This is an account of results in PubChem BioAssay (NCI).

Common to all, as to test: growth of human tumour cells (NCI), 48 h
Test [1] deals with 786-0 renal.
Test [2] relates to CCRF-CEM leukemia.
The test system of test [3] is HCT-116 colon.
Test [4] has as its system HCT-15 colon.
Test [5] deals with HOP-92 NSCLC.
Test [6] has as its system MDA-N.
For test [7], the system named is NCI-H226 lung.
For test [8], the system named is NCI-H23 lung.
In test [9] the test system is OVCAR-5 ovarian.
For test [10], the system named is SF-295 CNS.
Test [11] has as its system A549 NSCLC.

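Dose response: 5 concentrations. Exposure: 48 h. Format: 96-well plates. Endpoint: linear interpolation; highest concentration if not reached. TGI denotes the concentration required for complete inhibition of growth.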

Regarding `COC(OC)[C@@H]1OC[C@@H](O)[C@@H]1n1cnc2c(N)ncnc21`, the TGI in test [1], in [2], in [3], in test [4], in test [5] and in [6] was greater than 100 µM in each case. In addition, the TGI in [7], in test [8], in test [9] and in test [10] was greater than 100 µM in each case.
On to `Cc1ccc(NC(=O)C(=O)CC(=O)c2sc(Nc3c(C)cccc3C)nc2C)cc1C`, for which the TGI in [1], in test [11], in test [2], in test [3], in test [4] and in test [5] was greater than 100 µM in each case. Also, the TGI in test [6], in test [7], in test [8], in test [9] and in test [10] was greater than 100 µM in each case.
Take `C[Si](C)(C)C1=C([Si](C)(C)C)C(Cl)(Cl)C1=O`: the TGI in test [1] amounted to 10 µM; in [11], 49.7 µM; in test [2], 1.42 µM; in [3], 7.02 µM; in [4], 4.05 µM; in test [5], 5.55 µM. Moreover, the TGI in [6] came to 5.39 µM; in test [7] it was 8.86 µM; in test [8], 18.4 µM; in test [9] it was 20 µM; in test [10] it was 22.3 µM.
Consider `CC(C)C1N(C)c2ccc(Cl)cc2[C@H]2c3ccccc3CCN12` (some centres undefined), for which the TGI in [1], in [11], in test [2], in test [3], in [4] and in test [5] was greater than 100 µM in each case. Moreover, the TGI in test [6] is 92 µM; in test [7] it was 67.9 µM; in test [8], greater than 100 µM; in [9], greater than 100 µM; in test [10] it was greater than 100 µM.
With `NNC(=O)c1cc(=O)[nH][nH]1`, the TGI in [1], in test [11], in test [2], in test [3], in test [4] and in [5] was greater than 100 µM each time. Further, the TGI in [6], in test [7], in [8], in [9] and in [10] was greater than 100 µM in each case.
On to `COC(=O)c1ccc(Nc2nc3nc[nH]c3c(=O)[nH]2)cc1`, for which the TGI in test [1], in [11], in test [2], in test [3], in test [4] and in [5] was greater than 100 µM in each case. For the same compound, the TGI in test [6], in [7], in test [8], in test [9] and in test [10] was greater than 100 µM throughout.
Consider `CCOc1cc(NC(C)=O)ccc1C(=O)NN1C(=O)CSC1c1ccccc1` (centres undefined), for which the TGI in test [1], in test [11], in [2], in [3], in test [4] and in [5] was greater than 100 µM in each case. Also, the TGI in [6], in test [7], in test [8], in test [9] and in [10] was greater than 100 µM throughout.
Take `COc1ccc(/C=N/n2cnc3[nH]c(C)c(Cc4ccccc4)c3c2=N)cc1`: the TGI in test [1], in [11], in test [2], in test [3], in test [4] and in [5] was greater than 100 µM in each case. Moreover, the TGI in [6], in test [7], in test [8], in [9] and in test [10] was greater than 100 µM in each case.
Regarding `CC(=N\N)/C(C)=N/N=C(C)/C(C)=N/N=C(C)/C(C)=N/N`, the TGI in test [1], in test [11], in [2], in [3], in test [4] and in [5] was greater than 100 µM throughout. Further, the TGI in test [6], in test [7], in [8], in test [9] and in test [10] was greater than 100 µM throughout.
Take `CCN(CC)c1ccc(/C=C/C=C2C(=O)NC(=S)NC2=O)cc1`: the TGI in [1], in [11], in test [2], in test [3], in [4] and in test [5] was greater than 100 µM in each case. The TGI was greater than 61.6 µM in test [6]; 99 µM in [7]; greater than 100 µM in [8]; greater than 100 µM in [9]; greater than 100 µM in test [10].
With `CN(C)c1cccc(NC2=NCCO2)c1`, the TGI in test [1], in test [11], in [2], in [3], in test [4] and in [5] was greater than 100 µM in each case. Also, the TGI was 32.8 µM in test [6]; greater than 100 µM in test [7]; 85.3 µM in [8]; greater than 100 µM in test [9]; greater than 100 µM in test [10].
Regarding `O=[N+]([O-])c1ccc(O)c(/C=N/NC(=S)N2CCCCC2)c1`, the TGI is 13.8 µM in test [1]; greater than 100 µM in test [11]; greater than 82 µM in [2]; 40.3 µM in test [3]; 44.1 µM in [4]; 33 µM in test [5]. Also, the TGI in [6] is 60.1 µM; in test [7], 5.94 µM; in test [8], 32.9 µM; in [9] it was greater than 100 µM; in test [10], 28.7 µM.
Take `COc1cc(-c2ccccc2N)c2cccnc2c1OC`: the TGI in test [1] was found to be 14.9 µM; in [11] it was 16.1 µM; in test [2], 22.5 µM; in test [3], 11.9 µM; in test [4], 16.1 µM; in [5], 22.3 µM. For the same compound, the TGI is 20.2 µM in test [6], 26.6 µM in [7], 19.6 µM in test [8] and 7.18 µM in test [10].
`C(=C\N1CCCCC1)/c1nnnn1-c1ccccc1`: the TGI is greater than 100 µM in test [1]; greater than 100 µM in [11]; 61.1 µM in test [2]; greater than 100 µM in [3]; greater than 100 µM in test [4]; greater than 100 µM in test [5]. The TGI was greater than 100 µM in test [6]; greater than 100 µM in test [7]; greater than 100 µM in test [8]; greater than 100 µM in test [9]; 66.9 µM in test [10].
`O=C(NC(=S)NC(=O)c1cc(O)c(O)c(O)c1)c1cc(O)c(O)c(O)c1`: the TGI in test [1] is 40.2 µM; in test [11], greater than 100 µM; in test [2] it was greater than 100 µM; in [3], 44.4 µM; in test [4] it was 67.8 µM; in test [5], greater than 100 µM. In addition, the TGI in test [6] was 6.06 µM; in [7] it was greater than 100 µM; in test [8], 55.4 µM; in [9], 78.8 µM; in test [10], 46.3 µM.
With `CCOC(=O)Oc1ccc2c(c1)c(=O)c1c(NCCN(CC)CC)ccc3nnn2c31`, the TGI worked out at 13 µM in test [1]; 12.4 µM in test [11]; 1.54 µM in test [2]; 12.6 µM in test [3]; 16.6 µM in test [4]; 21.4 µM in [5]. For the same compound, the TGI in test [6] stood at 15.6 µM; in test [7], 7.71 µM; in test [8], 18.1 µM; in test [9] it was 22.7 µM; in test [10], 19.5 µM.
Take `COc1ccc(C(C2=C(O)COC2=O)c2cc3c(cc2O)OCO3)cc1OC` (centres undefined): the TGI in [1], in [11], in test [2], in test [3], in test [4] and in [5] was greater than 100 µM in each case. The TGI in test [6], in test [7], in test [9] and in [10] was greater than 100 µM each time.
For the compound `C/C1=C\C=C(\C(C)C)CC/C(C(=O)O)=C\CC/C(C)=C/CC1`, the TGI in test [1] is 65.9 µM; in test [11], greater than 100 µM; in test [2], 41.8 µM; in [3], 29.8 µM; in [4], 51.1 µM; in [5], 40.5 µM. For the same compound, the TGI in test [6] amounted to 82 µM; in test [7], 43.3 µM; in test [8], 42.7 µM; in test [9], 78 µM; in test [10] it was 47.9 µM.
In the case of `O=C1c2cn[nH]c2C(c2ccccc2)N1c1ccccc1` (centres undefined), the TGI in test [1], in test [11], in test [2], in test [3], in test [4] and in [5] was greater than 10 µM in each case. Also, the TGI in test [6], in test [7], in test [8], in [9] and in test [10] was greater than 10 µM throughout.
Consider `CC(=O)N(O)c1ccc(-c2nc3ccccc3s2)cc1`, for which the TGI in test [1], in test [11], in test [2], in test [3], in [4] and in test [5] was greater than 100 µM throughout. The TGI in test [6] was greater than 100 µM; in [7], 73.2 µM; in test [8] it was greater than 100 µM; in test [9] it was greater than 100 µM; in test [10] it was greater than 100 µM.
As for `COc1cc(C2c3cc4c(cc3OC(N3CCNCC3)C2C)OCO4)cc(OC)c1OC` (centres undefined), the TGI in test [1] is 15.7 µM; in [11], greater than 53.9 µM; in test [2], 17.7 µM; in test [3], 9.23 µM; in [4], greater than 39.9 µM; in [5] it was 24.8 µM. Further, the TGI in test [6] is 0.652 µM; in test [7] it was 8.78 µM; in test [8], greater than 100 µM; in test [9] it was greater than 100 µM; in [10], 0.822 µM.
As for `COc1ccccc1C[C@@H]1OC2(C=CC(=O)C=C2)O[C@H]1Cc1ccccc1OC`, the TGI was 4.29 µM in [1]; greater than 50 µM in test [11]; 8.6 µM in test [2]; 2.32 µM in [3]; 27.9 µM in test [4]; 20.1 µM in test [5]. Also, the TGI in [6] turned out to be 21.7 µM; in test [7] it was 16.8 µM; in [8] it was 18.9 µM; in test [9], 16.5 µM; in test [10], 22.9 µM.
As to `CCc1ccccc1NNc1cc(=O)[nH]c(=O)[nH]1`, the TGI amounted to 32.5 µM in test [1]; 57.3 µM in test [11]; 82.8 µM in [2]; 31.1 µM in test [3]; 31.3 µM in test [5]; 33.6 µM in [6]. The TGI in test [7] was 35 µM; in test [8], greater than 100 µM; in test [9], 37.3 µM; in test [10] it was 36.2 µM.
As for `O=C(Nc1ccccc1)c1cc(S(=O)(=O)N2CCNNC2=O)c(S)cc1Cl`, the TGI is greater than 100 µM in test [1]; greater than 100 µM in [11]; greater than 100 µM in test [2]; 95.5 µM in [3]; greater than 100 µM in test [4]; greater than 100 µM in test [5]. Besides, the TGI in test [6], in test [7], in [9] and in [10] was greater than 100 µM throughout.
With `CCOC(=O)Cc1nc2c(N)ncnc2n1C1OC(COC(C)=O)C(OC(C)=O)C1OC(C)=O` (centres undefined), the TGI in test [1], in test [11], in [2], in test [3], in [4] and in [5] was greater than 100 µM in each case. The TGI in test [6], in test [7], in test [8] and in test [10] was greater than 100 µM throughout.
